{"source": "patent US6939561B2", "about": "“Methods and compositions for polyene antibiotics with reduced toxicity” (Wisconsin Alumni Research Foundation, priority 2001, dated 2005)", "key": {"Aspergillus fumigatus": {"system": "Aspergillus fumigatus", "experiment": "Minimal inhibitory concentration (MIC) of AmB, microwell dilution", "format": "cell-based", "conditions": "35° C., 24 hr", "description": "(§1) AmB in PEO-b-PHSA micelles was dissolved in isotonic sodium chloride solution giving an AmB level of 200 μg/ml. AmB was dissolved in DMSO and diluted further with the isotonic sodium chloride solution to give the same concentration. The level of DMSO in the final solution was <1% v/v. Samples of PEO-b-PHSA micelles in sodium chloride solution were also used as controls. Solutions of 20 μl from these samples were diluted with the culture medium (RPMI 1640) (80 μl) in the first microwell. The next 11 microwells had serial two-fold diluted solutions. To each microwell, 100 μl of the inoculum containing 5×10^3 CFU/ml of fungal pathogen (Candida albicans, Aspergillus fumigatus or Cryptococcus neoformans) in culture medium was added, giving a total volume of 200 μl per well. Microwell containers were incubated at 35° C. for 24 hr. Organism and medium controls were performed simultaneously to check the growth of organisms and sterility of culture medium, respectively. […] All tests were repeated three times."}, "Candida albicans": {"system": "Candida albicans", "experiment": "Minimal inhibitory concentration (MIC) of AmB, microwell dilution", "format": "cell-based", "conditions": "35° C., 24 hr", "description": "as §1"}, "Cryptococcus neoformans": {"system": "Cryptococcus neoformans", "experiment": "Minimal inhibitory concentration (MIC) of AmB, microwell dilution", "format": "cell-based", "conditions": "35° C., 24 hr", "description": "as §1"}, "[1]": {"experiment": "UV/VIS spectroscopy, I/IV ratio (self-aggregation state of AmB)", "format": "physicochemical", "conditions": "intensity at 348 nm to 409 nm, 4 μg/ml AmB, PBS pH 7.4", "description": "Freeze-dried samples of AmB in PEO-b-PHSA micelles with 11 and 70% stearate substitution were dissolved in PBS, pH=7.4, at 4 μg/ml of AmB. DMSO was used to solubilize AmB in PBS, pH=7.4, at a similar concentration. The level of DMSO in the final sample was <1% (v/v). The UV/VIS spectra of AmB in different samples were recorded from 300 nm to 450 nm."}, "human red blood cells": {"system": "human red blood cells", "experiment": "Hemolytic activity of AmB toward human red blood cells", "format": "cell-based", "conditions": "human RBCs, 37° C., 30 min", "description": "Human blood was collected and centrifuged (2000 rpm). The supernatant and buffy coat were pipetted off and the red blood cells (RBCs) were diluted with an isotonic phosphate buffer, pH 7.4. The proper dilution factor was estimated from the UV/VIS absorbance of hemoglobin at 576 nm in the supernatant after RBCs were lysed by 20 μg/ml of AmB. A properly diluted sample of RBCs gives an absorbance of 0.4-0.5. Solutions of diluted RBCs (2.5 ml) with varied levels of AmB in different samples were incubated at 37° C. for 30 min. Samples were then placed in ice to stop hemolysis. The unlysed RBCs were removed by centrifugation at 14,000 rpm (about 7000×g) for 20 sec. The supernatant was collected and analyzed for hemoglobin by UV/VIS spectroscopy at 576 nm. The percent of hemolyzed RBCs was determined using this equation: % hemolysis=100(Abs−Abso)/(Abs100−Abso), where Abs, Abso and Abs100 are the absorbance for the sample, control with no AmB and control in the presence of 20 μg/ml AmB, respectively."}}}
{"smiles": "C[C@@H]1[C@H](O)[C@@H](C)/C=C/C=C/C=C/C=C/C=C/C=C/C=C/[C@H](O[C@@H]2O[C@H](C)[C@@H](O)[C@H](N)[C@@H]2O)C[C@@H]2O[C@](O)(C[C@@H](O)C[C@@H](O)[C@H](O)CC[C@@H](O)C[C@@H](O)CC(=O)O[C@H]1C)C[C@H](O)[C@H]2C(=O)O", "note": "[AmB, Amphotericin B]", "values": [{"measurement": "MIC, AmB level inhibiting growth of A. fumigatus", "setting": "Aspergillus fumigatus", "value": 0.45, "unit": "µg/mL"}, {"measurement": "MIC, AmB level inhibiting growth of C. albicans", "setting": "Candida albicans", "value": 0.3, "unit": "µg/mL"}, {"measurement": "MIC, AmB level inhibiting growth of C. neoformans", "setting": "Cryptococcus neoformans", "value": 0.3, "unit": "µg/mL"}, {"measurement": "I/IV ratio", "setting": "[1]", "value": "about 1.2"}, {"measurement": "AmB level causing 100% hemolysis", "setting": "human red blood cells", "value": "about 1 μg/ml"}]}
